Laboratory results published in patent US20100256148A1, “USE OF CFMS INHIBITOR FOR TREATING OR PREVENTING BONE CANCER AND THE BONE LOSS AND BONE PAIN ASSOCIATED WITH BONE CANCER” (priority 2007, published 2010).
Where a name gives a salt, the structure may show the parent alone. Read-outs that look alike come from different tables or passages of the source. Marks after values point to notes of the source that are not given here.

Legend:
[1] = tested on: H460, MDA-MB-231, A375; assay: Growth factor-independent proliferation of adenocarcinoma cells; assay type: cell-based, human
[2] = tested on: MRMT-1 rat mammary gland carcinoma cells; assay: Rat MRMT-1 bone metastasis model (osteolysis, osteoclasts, tumor); assay type: in vivo; parameters: key to Microradiograph score (five point visual score): 0 = no destruction to 5 = bi-cortical bone loss/fracture; key to Trabecular bone vol score (three point visual score): 0 = none, 1 = 1-10%, 2 = >10-<40% (normal), 3 = >40% area; key to Tumor vol score (three point visual score): 0 = none, 1 = small, 2 = moderate, 3 = large tumor; settings: for Microradiograph score (five point visual score) / Osteoclast Counts (TRAP positive cells, mean of three 200x fields) / Tumor vol score (three point visual score) / Trabecular bone vol score (three point visual score): Day 3 to Day 17, mean ± SEM
Method: Rat MRMT-1 bone metastasis model. Inoculation of rat mammary MRMT-1 adenocarcinoma cells into tibiae has been described as a bone metastasis model (Medhurst S J, et al., Pain 2002; 96:129-40. An adaptation of the model (Roudier M P, et al., Clin Exp Metastasis 2006, 23:167-75) was performed by MDS Pharma Services (Bothel, Wash.). Female Sprague-Dawley rats (Harlan Sprague Dawley, Inc., Indianapolis, Ind.) approximately 125-150 grams were acclimated one week. The animals were anesthetized with ketamine/xylazine, and the right leg area was shaved and scrubbed with chlorhexadine and 70% ethanol (SOP-SUR026). A 1-cm rostral-caudal incision was made in the skin over the top half of the tibia. Blunt-dissection exposed the proximal tibia, and a Hamilton syringe guided by a 23-gauge needle was used to inject 3 μl of saline (sham) or saline containing 3×10^4 MRMT-1 cells into the medullary cavity of the right proximal tibia of each rat. The injection site was closed with bone wax. The wound was closed with surgical staples. […] To serve as a control, a fourth group was dosed QOD sc with 0.03 mg/kg zoledronate in saline. Eight rats were dosed per group. Rats were sacrificed on Day 17. Right tibiae were excised, together with surrounding tumor tissue, and microradiographs prepared using an MX-20 x-ray system (Faxitron X-ray Corporation, Wheeling, Ill.). Microradiographs were scored for tumor-induced osteolysis as follows: 0, no signs of destruction; 1, one to three small radiolucent lesions; 2, three to six lesions and loss of medullary bone; 3, loss of medullary bone and erosion of cortical bone; 4, full thickness uni-cortical bone loss; 5, full thickness bi-cortical bone loss and/or displaced skeletal fracture. The radiographs were used to select representative bones from each group for microCT imaging. All tibia were fixed in 10% neutral buffered formalin for two days, decalcified and sectioned for histopathological evaluation. TRAP staining was performed as described previously in Liu, C., et al., 1987. […] For each tibia, the numbers of tumor-associated TRAP^+ osteoclasts were counted in the three 200×-fields with highest osteoclast frequency. A semi-quantitative three-point scoring method was used to compare treatment groups with regards to trabecular bone volume (3, >40 area; 2, >10%<40% area (normal); 1, 1-10% area; 0, none) and tumor volume (3, large; 2, moderate; 1, small; 0, none).

[3] = tested on: NCTC 2472 osteolytic sarcoma cells; assay: 2472 sarcoma model of secondary bone tumor: osteolysis and histology; assay type: in vivo, mouse; settings: for Bone erosion score (visual, scale 0-5, microradiographs): Day 15
Method: (§1) 2472 sarcoma model of secondary bone tumor pain and osteolysis. Experiments were performed on adult male C3H/HeJ mice (Jackson Laboratories, Bar Harbor, Me., USA), approximately 7-8 weeks old, weighing 25-30 g at the time of tumor cell injection. An arthrotomy was performed following induction of general anesthesia with ketamine/xylazine (2:1 ratio; intramuscular (i.m.)). A needle was inserted into the intramedullary canal to create a pathway for the sarcoma cells. A depression was then made using a pneumatic dental high speed handpiece. Mice were injected with Hanks buffered saline (HBSS) (20 ul, Sigma, St. Louis, Mo., USA) or HBSS containing the 2472 sarcoma line (ATCC, Rockville, Md., USA). The injection site is sealed with a dental amalgam plug to confine the cells within the intramedullary canal and followed by irrigation with sterile water (hypotonic solution). Finally, incision closure is achieved with a wound clip. Clips are removed at day 5 as not to interfere with behavioral testing.
The extent of tumor-induced bone reorganization (osteolysis) was radiologically assessed using Faxitron analysis (Specimen Radiography System Model MX-20, Faxitron X-ray Corporation, Wheeling, Ill., and Kodak film Min-R 2000, Rochester, N.Y.). Radiographs of tumor-bearing femora were scored on a 0 to 5 scale: (0) normal bone with no signs of destruction; (1) small pits of bone destruction (1-3 in number); (2) increased pitted appearance (3-6) and loss of medullary bone; (3) loss of medullary bone and erosion of cortical bone; (4) full thickness unicortical bone loss; (5) full thickness bicortical bone loss and displaced skeletal fracture.

[4] = tested on: NCTC 2472 osteolytic sarcoma cells; assay: 2472 sarcoma model: pain-related behaviors; assay type: in vivo, mouse
Method: as §1
A variety of behavioral measurements were used to assess the extent of bone cancer pain.
Spontaneous nocifensive behaviors: The number of spontaneous flinches and guarding, representative of nociceptive behavior, were recorded during a 2-minute observation period. Flinches are defined as number of times the animal raises its hindpaw and guarding as the amount of time animals hold the hindpaw aloft while stationary.
Palpation-induced nocifensive behaviors: Mechanical allodynia at the knee joint was evaluated by normally non-noxious palpation of the distal femur every second for 2 minutes. Following the 2-minute palpation, the mice were placed in the observation box and their palpation-induced guarding and flinching behavior was measured for an additional 2 minutes, as discussed above.

[5] = tested on: NCI-H460 human lung carcinoma cells; settings: for final tumor weights reduced by: at study termination
[6] = tested on: MRMT-1 cells; assay: Tactile (mechanical) allodynia in the MRMT-1 model; assay type: in vivo, rat
Method: Rat MRMT-1 bone metastasis model. Inoculation of rat mammary MRMT-1 adenocarcinoma cells into tibiae has been described as a bone metastasis model (Medhurst S J, et al., Pain 2002; 96:129-40. An adaptation of the model (Roudier M P, et al., Clin Exp Metastasis 2006, 23:167-75) was performed by MDS Pharma Services (Bothel, Wash.). Female Sprague-Dawley rats (Harlan Sprague Dawley, Inc., Indianapolis, Ind.) approximately 125-150 grams were acclimated one week. The animals were anesthetized with ketamine/xylazine, and the right leg area was shaved and scrubbed with chlorhexadine and 70% ethanol (SOP-SUR026). A 1-cm rostral-caudal incision was made in the skin over the top half of the tibia. […] Microradiographs were scored for tumor-induced osteolysis as follows: 0, no signs of destruction; 1, one to three small radiolucent lesions; 2, three to six lesions and loss of medullary bone; 3, loss of medullary bone and erosion of cortical bone; 4, full thickness uni-cortical bone loss; 5, full thickness bi-cortical bone loss and/or displaced skeletal fracture. […] For each tibia, the numbers of tumor-associated TRAP^+ osteoclasts were counted in the three 200×-fields with highest osteoclast frequency. […]
Pain Behavioral Assessments. […] The behavioral test for tactile allodynia, measured prior to surgery, was used for randomization of animals to the treatment groups. […]

[7] = JNJ-141 20 mpk oral twice daily
[8] = JNJ-141 60 mpk oral twice daily
[9] = 60 mg/kg oral twice daily, tumor mice
[10] = 120 mg/kg oral twice daily, sham mice
[11] = 120 mg/kg oral twice daily, tumor mice
[12] = 25 mg/kg oral twice daily, mean ± SEM
[13] = 50 mg/kg oral twice daily, mean ± SEM
[14] = 100 mg/kg oral twice daily, mean ± SEM

## CN(C)CC(=O)N1CCC(c2ccc(NC(=O)c3nc(C#N)c[nH]3)c(C3=CCCCC3)c2)CC1 [JNJ-141, 4-cyano-N-[2-(1-cyclohexen-1-yl)-4-[1-[(dimethylamino)acetyl]-4-piperidinyl]phenyl]-1H-imidazole-2-carboxamide monohydrochloride]
[1]; 5 μM, monohydrochloride
  growth factor-independent (serum-dependent) proliferation in culture: did not inhibit
[1]; Homo sapiens, H460, MDA-MB-231, A375, no stimulus, determined once
  IC50: > 5 µM
[2]; [7]
  Microradiograph score (five point visual score): 0.75 ± 0.17
  Osteoclast Counts (TRAP positive cells, mean of three 200x fields): 3.7 ± 0.7
  Tumor vol score (three point visual score): 1.75 ± 0.48
[2]; JNJ-141 20 or 60 mg/kg oral twice daily
  tumor-associated osteoclasts reduced by: greater than 95%
[2]; [8]
  Microradiograph score (five point visual score): 0.83 ± 0.18
  Osteoclast Counts (TRAP positive cells, mean of three 200x fields): 2.6 ± 1.5
  Trabecular bone vol score (three point visual score): 2.33 ± 0.23
  Tumor vol score (three point visual score): 1.50 ± 0.55
[3]; 60 mg/kg oral twice daily, NCTC 2472 tumor mice
  Bone erosion score (visual, scale 0-5, microradiographs): 3.5
[3]; [9]
  Macrophage Counts (CD68 positive cells): 84** Counts per high powered field
  Osteoclast Counts (TRACP positive cells): 79** Counts per high powered field
  Tumor area % marrow: 100%
[3]; 120 mg/kg oral twice daily, NCTC 2472 tumor mice
  Bone erosion score (visual, scale 0-5, microradiographs): 2.0**
[3]; 120 mg/kg oral twice daily, sham (saline) mice
  Bone erosion score (visual, scale 0-5, microradiographs): 0.25
[3]; [10]
  Macrophage Counts (CD68 positive cells): 28 Counts per high powered field
  Osteoclast Counts (TRACP positive cells): 41 Counts per high powered field
[3]; [11]
  Macrophage Counts (CD68 positive cells): 140* Counts per high powered field
  Osteoclast Counts (TRACP positive cells): 147 Counts per high powered field
  Tumor area % marrow: 90%
[4]; [9]
  PIF Day 7 (palpation-induced flinches over 2 minutes): 10.3
  PIF Day 9 (palpation-induced flinches over 2 minutes): 14.3
  PIF Day 11 (palpation-induced flinches over 2 minutes): 16.3
  PIF Day 13 (palpation-induced flinches over 2 minutes): 12.7*
  PIF Day 15 (palpation-induced flinches over 2 minutes): 11.7**
  PIG Day 15 (palpation-induced guarding time over 2 minutes): 9.1* sec
  SF Day 15 (spontaneous flinches over 2 minutes): 10*
  SG Day 15 (spontaneous guarding time over 2 minutes): 7.9 s
[4]; [10]
  PIF Day 7 (palpation-induced flinches over 2 minutes): 2.5
  PIF Day 9 (palpation-induced flinches over 2 minutes): 1.3
  PIF Day 11 (palpation-induced flinches over 2 minutes): 1.3
  PIF Day 13 (palpation-induced flinches over 2 minutes): 1.8
  PIF Day 15 (palpation-induced flinches over 2 minutes): 1.8
  PIG Day 15 (palpation-induced guarding time over 2 minutes): 0.9 s
  SF Day 15 (spontaneous flinches over 2 minutes): 1.3
  SG Day 15 (spontaneous guarding time over 2 minutes): 0.6 s
[4]; [11]
  PIF Day 7 (palpation-induced flinches over 2 minutes): 9.5
  PIF Day 9 (palpation-induced flinches over 2 minutes): 7.8**
  PIF Day 11 (palpation-induced flinches over 2 minutes): 8.5**
  PIF Day 13 (palpation-induced flinches over 2 minutes): 10.3**
  PIF Day 15 (palpation-induced flinches over 2 minutes): 9.3**
  PIG Day 15 (palpation-induced guarding time over 2 minutes): 6.4** sec
  SF Day 15 (spontaneous flinches over 2 minutes): 8.5**
  SG Day 15 (spontaneous guarding time over 2 minutes): 6.1** sec
[4]; 120 mg/kg, Day 15
  palpation induced flinching reduced by: approximately 50%
[5]; 25 mg/kg oral twice daily (qd on weekends) from day 3, mean ± SEM
  Mean final tumor weight, mg: 1,257 ± 209 mg
[5]; [12]
  Macrophage density, % area (F4/80 positive, 200X-field): 4.3 ± 0.68 % area
  Microvascular density, % area (CD31 positive): 3.73 ± 0.81 % area
[5]; 25 mg/kg oral
  final tumor weights reduced by: 21%
[5]; 50 mg/kg oral twice daily (qd on weekends) from day 3, mean ± SEM
  Mean final tumor weight, mg: 1,070 ± 121 mg
[5]; [13]
  Macrophage density, % area (F4/80 positive, 200X-field): 2.6 ± 0.57 % area
  Microvascular density, % area (CD31 positive): 2.10 ± 0.57 % area
[5]; 50 mg/kg oral
  final tumor weights reduced by: 32%
[5]; 100 mg/kg oral twice daily (qd on weekends) from day 3, mean ± SEM
  Mean final tumor weight: 870 ± 94 mg
[5]; [14]
  Macrophage density, % area (F4/80 positive, 200X-field): 0.31 ± 0.14 % area
  Microvascular density, % area (CD31 positive): 1.25 ± 0.16 % area
[5]; 100 mg/kg oral
  final tumor weights reduced by: 45%
[5]; highest dose (100 mg/kg)
  reduction in tumor vascularity (vessel density): 66%

## CN1CC[C@]23c4c5ccc(O)c4O[C@H]2[C@@H](O)C=C[C@H]3[C@H]1C5 [morphine]
[6]; morphine, from the 2nd time point forward
  mechanical allodynia of affected animals: reversed allodynia

## O=P(O)(O)C(O)(Cn1ccnc1)P(=O)(O)O [zoledronate, reference compound]
[2]; treated rats, day 17
  full thickness cortical bone lesions: not observed
[2]; zoledronate 0.03 mg/kg QOD sc
  tumor-associated osteoclasts reduced by: 64%
[2]; zoledronate 0.03 mpk QOD sc
  Microradiograph score (five point visual score): 0.38 ± 0.20
  Osteoclast Counts (TRAP positive cells, mean of three 200x fields): 21.0 ± 3.2
  Trabecular bone vol score (three point visual score): 2.63 ± 0.20
  Tumor vol score (three point visual score): 1.63 ± 0.20
[6]; zoledronate treatment
  mechanical allodynia compared to tumor-inoculated animals: decreased allodynia compared to tumor-inoculated animals but this effect did not reach statistical significance
